From patent US9957271B2, “Substituted bicyclic aza-heterocycles and analogues as sirtuin modulators” (GlaxoSmithKline, LLC, priority 2012, dated 2018)

What was measured:
[1] = biological target: T1, SIRT1 (Homo sapiens, UniProt Q96EB6); experiment: TAMRA based mass spectrometry assay of SIRT1 activity; format: biochemical; settings: for Emax: read-out: TAMRA % Fold Act
T1 sequence (Q96EB6 1-747): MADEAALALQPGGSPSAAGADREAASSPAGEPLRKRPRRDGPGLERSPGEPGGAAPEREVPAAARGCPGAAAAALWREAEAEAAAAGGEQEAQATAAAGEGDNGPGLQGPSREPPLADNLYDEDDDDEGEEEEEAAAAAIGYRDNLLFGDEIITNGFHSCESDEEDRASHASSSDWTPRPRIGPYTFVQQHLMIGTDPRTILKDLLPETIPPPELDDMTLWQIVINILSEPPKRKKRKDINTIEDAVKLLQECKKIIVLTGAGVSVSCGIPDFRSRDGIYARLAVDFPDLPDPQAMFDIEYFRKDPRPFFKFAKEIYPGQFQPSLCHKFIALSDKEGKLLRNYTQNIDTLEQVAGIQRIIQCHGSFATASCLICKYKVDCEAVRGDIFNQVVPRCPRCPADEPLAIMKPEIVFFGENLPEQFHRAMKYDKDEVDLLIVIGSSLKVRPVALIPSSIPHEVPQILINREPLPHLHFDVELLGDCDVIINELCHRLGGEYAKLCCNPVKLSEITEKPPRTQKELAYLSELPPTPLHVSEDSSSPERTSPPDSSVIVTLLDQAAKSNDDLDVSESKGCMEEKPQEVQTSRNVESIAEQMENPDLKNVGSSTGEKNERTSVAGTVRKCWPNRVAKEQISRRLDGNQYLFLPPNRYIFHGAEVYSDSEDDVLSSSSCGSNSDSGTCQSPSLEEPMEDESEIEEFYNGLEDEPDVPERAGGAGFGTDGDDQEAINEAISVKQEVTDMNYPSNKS
Summary of the method: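 Deacetylation of a biotinylated, TAMRA-tagged p53-based peptide (0.5 μM) by 10 nM His-tagged SIRT1 with 120 μM βNAD+, 25 °C for 25 min, pH 8 Tris-acetate buffer, across a compound concentration range. Quenched by formic acid and read by mass spec as product peptide or OAADPR; activity relative to DMSO reactions, nicotinamide defining maximal inhibition.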

[2] = biological target: T1, SIRT1; experiment: Trp mass spectrometry assay of SIRT1 activity; format: biochemical; settings: for Emax: read-out: Trp % Fold Act
Summary of the method: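 Activation readout: EC1.5 (concentration raising activity 50% over control) and percent maximum activation, from mass-spec quantitation of OAADPR or deacetylated Trp peptide. Reaction: 0.5 μM acetylated Trp peptide, 120 μM βNAD+, 10 nM bacterially expressed N-His SIRT1, pH 7.5 HEPES buffer with […], 25 min at 25° C.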

[3] = TAMRA assay, concentration giving 150% activation of SIRT1
[4] = TAMRA assay, percent maximum fold activation
[5] = Trp assay, concentration giving 150% activation of SIRT1
[6] = Trp assay, percent maximum fold activation
[7] = concentration of test compound giving 150% activation of SIRT1, TAMRA peptide substrate
[8] = percent maximum fold activation of SIRT1, TAMRA peptide substrate
[9] = concentration of test compound giving 150% activation of SIRT1, Trp peptide substrate
[10] = percent maximum fold activation of SIRT1, Trp peptide substrate
[11] = TAMRA peptide substrate, concentration giving 150% activation of SIRT1
[12] = TAMRA peptide substrate, percent maximum fold activation
[13] = Trp peptide substrate, concentration giving 150% activation of SIRT1
[14] = Trp peptide substrate, percent maximum fold activation

Compound | TAMRA EC1.5 (μM) [1, 3] | Emax [1, 4] [%] | Trp EC1.5 (μM) [2, 5] | Emax [2, 6] [%] | TAMRA EC1.5 [1, 11] | Emax [1, 12] [%] | Trp EC1.5 [2, 13] | Emax [2, 14] [%] | other results
O=C(Nc1cnc2ccc(-c3ccccc3Cl)nn12)c1ncccn1 [Compound 290] | B (EC1.5 1-25 μM) | ≥ 350 | C (EC1.5>25 μM) | < 350 |  |  |  |  | 
O=C(Nc1ccnc(N2CCC2)c1)c1cnc2ccc(-c3cncc(C(F)F)c3)nn12 [Compound 62] |  |  |  |  |  |  |  |  | TAMRA EC1.5 (μM) [1, 7]: B (EC1.5 1-25 μM); Emax [1, 8]: < 350%; Trp EC1.5 (μM) [2, 9]: C (EC1.5>25 μM); Emax [2, 10]: < 350%
O=C(Nc1ccc(CN2CCCC2)nc1)c1cnc2ccc(-c3ccccc3C(F)(F)F)nn12 [Compound 149] |  |  |  |  |  |  |  |  | TAMRA EC1.5 (μM) [1, 7]: B (EC1.5 1-25 μM); Emax [1, 8]: < 350%; Trp EC1.5 (μM) [2, 9]: B (EC1.5 1-25 μM); Emax [2, 10]: < 350%
Cc1nc(NC(=O)c2c(C)nc3c(C)cc(-c4ccccc4C(F)(F)F)nn23)sc1C [Compound 457] |  |  |  |  | A (EC1.5<1 μM) | ≥ 350 | A (EC1.5<1 μM) | < 350 | 
O=C(Nc1ccnc(OCC(O)CO)c1)c1cnc2ccc(-c3ccccc3F)nn12 (stereo not shown) [Compound 284] | C (EC1.5>25 μM) | < 350 | C (EC1.5>25 μM) | < 350 |  |  |  |  | 
Cc1nc2c(C)cc(-c3ccccc3C(F)(F)F)nn2c1C(=O)NCc1ccccn1 [Compound 561] |  |  |  |  | B (EC1.5 1-25 μM) | < 350 | B (EC1.5 1-25 μM) | ≥ 350 | 
O=C(Nc1cnc2ccc(-c3ccccc3Cl)nn12)c1ccccn1 [Compound 287] | A (EC1.5<1 μM) | ≥ 350 | C (EC1.5>25 μM) | < 350 |  |  |  |  | 
O=C(Nc1ccncc1F)c1cnc2ccc(-c3ccccc3OC[C@H](O)CO)nn12 [Compound 831] | B (EC1.5 1-25 μM) | ≥ 350 | B (EC1.5 1-25 μM) | < 350 |  |  |  |  | 
O=C(Nc1nccc(OCC(F)(F)F)n1)c1cnc2ccc(-c3ccccc3C(F)(F)F)nn12 [Compound 311] | A (EC1.5<1 μM) | ≥ 350 | A (EC1.5<1 μM) | ≥ 350 |  |  |  |  | 
O=C(Nc1cccc(O)n1)c1cnn2ccc(-c3ccccc3OC(F)(F)F)nc12 [Compound 580] |  |  |  |  | B (EC1.5 1-25 μM) | ≥ 350 | A (EC1.5<1 μM) | ≥ 350 | 
COCCOc1nccc(NC(=O)c2cnc3ccc(-c4ccccc4C(F)(F)F)nn23)n1 [Compound 634] | A (EC1.5<1 μM) | ≥ 350 | A (EC1.5<1 μM) | ≥ 350 |  |  |  |  | 
O=C(Nc1nc(CN2CCOCC2)cs1)c1cnc2ccc(-c3ccccc3C(F)F)nn12 [Compound 35] |  |  |  |  |  |  |  |  | TAMRA EC1.5 (μM) [1, 7]: B (EC1.5 1-25 μM); Emax [1, 8]: < 350%; Trp EC1.5 (μM) [2, 9]: C (EC1.5>25 μM); Emax [2, 10]: < 350%
COc1ccnc(NC(=O)c2cnc3ccc(-c4ccccc4C(F)(F)F)nn23)n1 [Compound 175] |  |  |  |  |  |  |  |  | TAMRA EC1.5 (μM) [1, 7]: A (EC1.5<1 μM); Emax [1, 8]: ≥ 350%; Trp EC1.5 (μM) [2, 9]: B (EC1.5 1-25 μM); Emax [2, 10]: ≥ 350%
CN(C)[C@@H]1CCN(c2ccc3ncc(C(=O)Nc4cccc(N5CCOCC5)n4)n3n2)C1 [Compound 511] |  |  |  |  | B (EC1.5 1-25 μM) | < 350 | B (EC1.5 1-25 μM) | < 350 | 
O=C(Nc1cnc2ccc(-c3ccccc3C(F)(F)F)nn12)c1cccc(OCC(O)CO)n1 (stereo not shown) [Compound 83] |  |  |  |  |  |  |  |  | TAMRA EC1.5 (μM) [1, 7]: A (EC1.5<1 μM); Emax [1, 8]: ≥ 350%; Trp EC1.5 (μM) [2, 9]: A (EC1.5<1 μM); Emax [2, 10]: ≥ 350%
O=C(Nc1cccnc1)c1cnn2ccc(-c3ccccc3C(F)(F)F)nc12 [Compound 239] | B (EC1.5 1-25 μM) | ≥ 350 | B (EC1.5 1-25 μM) | ≥ 350 |  |  |  |  | 
Cc1cc(C)nc(C(=O)Nc2cnc3ccc(-c4ccccc4C(F)(F)F)nn23)c1 [Compound 436] |  |  |  |  | A (EC1.5<1 μM) | ≥ 350 | C (EC1.5>25 μM) | < 350 | 
O=C(Nc1ncn2ccc(-c3ccccc3C(F)(F)F)nc12)c1ccccn1 [Compound 455, N-(2-(2-(trifluoromethyl)phenyl)imidazo[1,5-a]pyrimidin-8-yl)picolinamide] |  |  |  |  | B (EC1.5 1-25 μM) | < 350 | C (EC1.5>25 μM) | < 350 | 
Cc1cc(C)nc(NC(=O)c2cnc3ccc(-c4cccc(OC[C@H](O)CO)c4)nn23)c1 [Compound 591] |  |  |  |  | A (EC1.5<1 μM) | ≥ 350 | A (EC1.5<1 μM) | < 350 | 
N#Cc1ccccc1-c1ccc2ncc(NC(=O)c3cccc(N4CCC4)n3)n2n1 [Compound 338] | A (EC1.5<1 μM) | ≥ 350 | A (EC1.5<1 μM) | < 350 |  |  |  |  | 
O=C(Nc1cnc2ccc(-c3ccccc3C(F)(F)F)nn12)c1cccc(OC[C@H](O)CO)n1 [Compound 236] | A (EC1.5<1 μM) | ≥ 350 | A (EC1.5<1 μM) | ≥ 350 |  |  |  |  | 
Cc1nc2ccc(-c3ccccc3OC(F)(F)F)nn2c1C(=O)Nc1ccccn1 [Compound 496] |  |  |  |  | A (EC1.5<1 μM) | ≥ 350 | A (EC1.5<1 μM) | < 350 | 
COc1ccc(NC(=O)c2c(C)nc3ccc(-c4ccccc4Cl)nn23)nn1 [Compound 743] | B (EC1.5 1-25 μM) | < 350 | C (EC1.5>25 μM) | < 350 |  |  |  |  | 
Cc1nc2ccc(-c3ccccc3OC(F)(F)F)nn2c1C(=O)Nc1ccncc1F [Compound 466] |  |  |  |  | A (EC1.5<1 μM) | ≥ 350 | A (EC1.5<1 μM) | ≥ 350 | 
O=C(Nc1cccc(CN2CCOCC2)n1)c1cnc2ccc(-c3cccc(Cl)c3)nn12 [Compound 26] |  |  |  |  |  |  |  |  | TAMRA EC1.5 (μM) [1, 7]: A (EC1.5<1 μM); Emax [1, 8]: ≥ 350%; Trp EC1.5 (μM) [2, 9]: C (EC1.5>25 μM); Emax [2, 10]: < 350%
